{"source": "patent US11766444B2", "about": "“Pharmaceutical composition for preventing or treating degenerative brain disorders including HDL-APOM-S1P as active ingredient” (Kyungpook National University Industry-Academic Cooperation …, priority 2017, dated 2023)", "key": {"[1]": {"tested_on": "AD patients", "details": "cited from earlier work; for delaying cognitive decline compared to placebo: large-scale clinical trial, one year"}, "[2]": {"tested_on": "amyloid-β", "test": "Amyloid-β deposition in brain tissue (cerebral cortex), thioflavin S staining and immunofluorescence", "format": "in vivo, mouse", "details": "APP/PS1 mice, vs 9-month-old untreated APP/PS1 mice", "description": "(§1) Transgenic mice overexpressing hAPP695swe (APPswe) and presenilin-1M146V (PS1) mutations were used as mouse models of the Alzheimer's disease. These are mouse lines produced by GlaxoSmithKline (Harlow, UK) with the standard technology for C57BL background (Charles River, UK), which double heterozygote mutant mice (APP/PS1 tg mice) were produced by backcrossing APPswe mice with pure C57BL/6 backgrounds and crossing PS1 mice\n(§2) After collecting blood from mice, the obtained blood was separated into erythrocytes and plasma by centrifugation. The separated erythrocytes are reacted with 10 uM sphingosine at 37° C. for 1 hour, and then reacted for 1 hour at 37° C. after mixing again with the separated plasma. […]\n(§3) After fixing the cerebral (especially cortex) and hippocampus of mice with 4% paraformaldehyde, the immobilized tissues were incubated with 0.5% thioflavin S (Sigma-Aldrich) or anti-20G10 against Aβ42 (mouse, 1:1000), anti-G30 against Aβ40 (rabbit, 1:1000), anti-lba-1 (rabbit, 1:500, Wako), and anti-GFAP (rabbit, 1:500, DAKO), respectively. […] The sites were analyzed using a laser scanning confocal microscope or Olympus BX51 microscope equipped with Fluoview SV1000 imaging software (Olympus FV1000, Japan). Metamorph software (Molecular Devices) was used to quantify the percentage of area of stained area to area of total tissue. […]"}, "[3]": {"test": "S1P, ApoM, HDL-S1P and HDL-ApoM levels in plasma of APP/PS1 mice after HDL-ApoM-S1P loading", "format": "in vivo, mouse", "details": "i.v. 25 μl twice a week for 4 weeks (8 times), vs untreated APP/PS1 mice", "description": "as §1\n(§4) After collecting blood from mice, the obtained blood was separated into erythrocytes and plasma by centrifugation. The separated erythrocytes are reacted with 10 uM sphingosine at 37° C. for 1 hour, and then reacted for 1 hour at 37° C. after mixing again with the separated plasma. After completion of the reaction, erythrocytes and plasma were separated by centrifugation, and only the plasma was collected again. The plasma thus obtained was loaded with S1P in HDL (HDL-ApoM-S1P loading), which was illustrated in FIG. 1.\nThe plasma solution thus obtained was intravenously injected 25 μl into mice twice a week for 4 weeks (total 8 times) according to the experimental outline shown in FIG. 2. As a control group, 3 μM S1P (Avanti) and […] ApoM (Mybiosource, SEQ ID NO: 1) were injected intravenously with 25 μl in mice twice a week for 4 weeks (eight times in total).\nTo collect blood from mouse models (APP/PS1 tg mice or APP/PS1/ApoM tg mice) and normal control mice (WT), the mice were anesthetized first, and 500 μl to 700 μl of blood were collected in heparin tubes (BD Falcon) by cardiac drawing. Each blood sample was then centrifuged at 1,200 rpm for 5 minutes to separate plasma from the supernatant. This plasma sample was stored at −80° C. before being used for analysis.\n60 μl of plasma sample was placed in the ultrafast centrifuge tube, and then the same amount of PBS (Gibco) solution was added to form a layer on the plasma. A high speed centrifuge (HITACHI cp100wx Centrifuge P70AT rotor) was used to centrifuge at 70,000 rpm for 3 hours at 4° C. 60 μl of the lower layer of the sample separated into two layers was transferred into a new ultra-centrifuge tube. […]\nExtraction and quantification of S1P was performed in the following manner. […] The dried lipid extract was resuspended in 25 μl of 0.2% Igepal CA-630 (Sigma-Aldrich), and the concentration level of each lipid was quantified by the UPLC system using the column ACQUITY BEH Shield RP18 1.7 μm 2.1×50 mm (186002853) and 0.1% of NH4OH.\nUsing a commercial ELISA kit (CUSABIO Human ApoM ELISA Kit and Mouse ApoM ELISA Kit), the amount of apolipoprotein M (ApoM) contained in the mouse plasma or HDL fractionated therefrom was quantified according to the manufacturer's protocol. […]"}, "[4]": {"tested_on": "astrocytes", "test": "Activity of astrocytes (GFAP staining), neuroinflammatory response", "format": "in vivo, mouse", "details": "APP/PS1 mice, brain tissue, vs untreated APP/PS1 mice", "description": "as §1, §2, §3"}, "[5]": {"tested_on": "APP/PS1 mice", "test": "Morris water maze (MWM) test", "format": "in vivo, mouse", "details": "10 days training, probe trial day 11", "description": "as §1, §4\nThe plasma solution thus obtained was intravenously injected 25 μl into mice twice a week for 4 weeks (total 8 times) according to the experimental outline shown in FIG. 2. […]\nIn order to identify potential effects on learning and memory, Morris water maze (MWM) and fear conditioning experiments were performed according to known methods. […] All experiments were recorded using a charge-coupled device (CCD) camera with video monitor and computer. […]"}, "[6]": {"tested_on": "microglia", "test": "Activity of microglia (Iba1 staining), neuroinflammatory response", "format": "in vivo, mouse", "details": "APP/PS1 mice, brain tissue, vs untreated APP/PS1 mice", "description": "as §1, §2, §3"}, "[7]": {"tested_on": "tau", "test": "Tau deposition in brain tissue (AT8 immunofluorescence)", "format": "in vivo, mouse", "details": "APP/PS1 mice, cerebral cortex, vs 9-month-old untreated APP/PS1 mice", "description": "as §1, §2, §3"}}, "data": [{"smiles": "COc1ccc2cc([C@H](C)C(=O)O)ccc2c1", "note": "[naproxen]", "values": [{"measurement": "delaying cognitive decline compared to placebo", "setting": "[1]", "result": "not effective"}]}, {"smiles": "CS(=O)(=O)c1ccc(C2=C(c3ccccc3)C(=O)OC2)cc1", "note": "[rofecoxib]", "values": [{"measurement": "delaying cognitive decline compared to placebo", "setting": "[1]", "result": "not effective"}, {"measurement": "efficacy in mild to moderate AD patients", "setting": "[1]; trial for 1 year", "result": "ineffective"}]}, {"smiles": "CCN(CCO)CCCC(C)Nc1ccnc2cc(Cl)ccc12", "note": "(centres unmarked) [hydroxychloroquine]", "values": [{"measurement": "preventing memory degradation", "setting": "[1]; 18-month experiment", "result": "no protective effect"}]}, {"smiles": "CS(=O)(=O)Nc1ccc([N+](=O)[O-])cc1Oc1ccccc1", "note": "[nimesulide]", "values": [{"measurement": "rate of cognitive change", "setting": "[1]; AD patients, small 24-week studies", "result": "no significant difference"}]}, {"smiles": "O=C(O)Cc1ccccc1Nc1c(Cl)cccc1Cl", "note": "[diclofenac]", "values": [{"measurement": "index of cognitive decline vs placebo", "setting": "[1]; mild to moderate AD patients, diclofenac in combination with misoprostol, after 25 weeks", "result": "no significant difference"}]}, {"smiles": "C[C@]12C=CC(=O)C=C1CC[C@@H]1[C@@H]2C(=O)C[C@@]2(C)[C@H]1CC[C@]2(O)C(=O)CO", "note": "[prednisone]", "values": [{"measurement": "cognitive decline, treatment vs placebo groups", "setting": "[1]; low doses for one year", "result": "no difference"}]}, {"smiles": "CCCCCCCCCCCCC/C=C/[C@@H](O)[C@@H](N)COP(=O)(O)O", "note": "[S1P, Sphingosine-1-Phosphate]", "values": [{"measurement": "Aβ40 deposition in brain tissue", "setting": "[2]", "result": "did not show a significant difference"}, {"measurement": "Aβ42 deposition in brain tissue", "setting": "[2]", "result": "did not show a significant difference"}, {"measurement": "level of ApoM in plasma", "setting": "[3]", "result": "did not show a difference"}, {"measurement": "level of HDL-ApoM in the HDL fraction", "setting": "[3]", "result": "did not show a difference"}, {"measurement": "level of HDL-S1P in the HDL fraction", "setting": "[3]", "result": "did not show a difference"}, {"measurement": "level of S1P in plasma", "setting": "[3]", "result": "did not show a difference"}, {"measurement": "inflammatory activity of astrocytes", "setting": "[4]", "result": "no significant difference"}, {"measurement": "learning and memory (spatial memory formation), MWM", "setting": "[5]", "result": "severe impairment"}, {"measurement": "inflammatory activity of microglia", "setting": "[6]", "result": "no significant difference"}, {"measurement": "tau deposition (AT8) in brain tissue", "setting": "[7]", "result": "did not show a significant difference"}]}]}
